What all share (format): functional
The test system of assay [1] is Rattus norvegicus. Kind of assay: Analgesic activity in rats by acetic acid writhing test at a dose of 0.017 mmol/kg.
Assay [2] deals with Rattus norvegicus. Briefly: In vivo antiinflammatory activity by rat carrageenan-induced paw edema assay. A general note: The carrageenan paw model is a standard test of acute inflammation.
Assay [3] concerns Rattus norvegicus. Kind of assay: Analgesic activity in rats by acetic acid writhing test at a dose of 0.010 mmol/kg. On the technique in general: Writhing tests count abdominal constrictions after an irritant is injected.

For orientation: ED50 means the dose at which the effect has come halfway, by size or by number of responders. A high value points to a need for a large dose.

`CCCCCCCCCCCCCC[C@H](N)CO.Cl`: the Analgesic activity with Rattus norvegicus [1] was 89.2%. Besides, the ED50 in the assay on Rattus norvegicus [2] was 17 µmol/kg.
For the compound `CCCCCCCCCCCCCC[C@@H](N)CO.Cl`, the Analgesic activity in the assay on Rattus norvegicus [1] amounted to 72.6%. The compound also displayed an ED50 in the assay on Rattus norvegicus [2] of 17 µmol/kg.
In the case of `CCCCCCCCCCCCOC[C@@H](N)CO.Cl`, in the assay with Rattus norvegicus [2], the 50% effective dose (ED50) came to 10 µmol/kg. In addition, in the assay on Rattus norvegicus [3], the Analgesic activity came to 95.6%.
As for `CCCCCCCC/C=C/CCCCCC[C@H](N)CO.Cl`, the 50% effective dose (ED50) in the assay on Rattus norvegicus [2] worked out at 10 µmol/kg. Further, the Analgesic activity in the assay on Rattus norvegicus [3] came out at 88.1%.
With `COc1ccc2c(c1)c(CC(=O)O)c(C)n2C(=O)c1ccc(Cl)cc1` [INDOMETHACIN], the Analgesic activity with Rattus norvegicus [1] was determined as 47%. Besides, in the assay with Rattus norvegicus [2], the ED50 stood at 11 µmol/kg.
